Assays:
[1] = tested on: HCT116 MTAP-deleted cells; assay: Cell viability assay (CellTiter-Glo, 7 days), HCT116 MTAP-deleted; settings: Homo sapiens, HCT-116, 168 h
[2] = tested on: SDMA signal (PRMT5 inhibition) in HCT116 MTAP-deleted cells; assay: Symmetric di-methyl arginine image-based high content screen assay (SDMA assay), HCT116 MTAP-deleted; assay type: cell-based; settings: SDMA assay; for EC50: Homo sapiens, HCT-116, 72 h, 3 days of treatment, cell line not given, taken as HCT116 MTAP-deleted, read-out: EC50 (SDMA assay); for EC50 selectivity (SDMA assay): taken as HCT116 WT versus MTAP-deleted
How it was run: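 Read-out: per-cell mean SDMA immunofluorescence (Alexa Fluor 488 secondary), cells segmented by DAPI on a high-content imager. Compound exposure in HCT116 MTAP-deleted cells lasted until fixation on Day 3; overnight 4° C primary anti-SDMA antibody staining.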

EC50 [2] [nM] | EC50 selectivity (SDMA assay) [2] | Compound | CC50 [1] [nM]
1 to 5 | 43 | CC(=O)N(C)N(Cc1ccc(-c2ccc(C(F)(F)F)nc2)cc1F)C(=O)c1ccc2nc(N)c3cnn(C)c3c2c1 [Example 229, N′-acetyl-4-amino-N-(2-fluoro-4-(6-(trifluoromethyl)pyridin-3-yl)benzyl)-N′,1-dimethyl-1H-pyrazolo[4,3-c]quinoline-8-carbohydrazide] | < 100
< 1 | 228 | CN(C(=O)C1CC1)N(Cc1ccc(-c2cnn(C(F)(F)F)c2)cc1F)C(=O)c1ccc2nc(N)c3cnn(C)c3c2c1 [Example 230, 4-amino-N′-(cyclopropanecarbonyl)-N-(2-fluoro-4-(1-(trifluoromethyl)-1H-pyrazol-4-yl)benzyl)-N′,1-dimethyl-1H-pyrazolo[4,3-c]quinoline-8-carbohydrazide] | < 100
1 to 5 | 18 | CC(=O)N(C)N(Cc1ccc(-c2ccc(C(F)(F)F)cc2)cc1F)C(=O)c1ccc2nc(N)c3cnn(C)c3c2c1 [Example 231, N′-acetyl-4-amino-N-((3-fluoro-4′-(trifluoromethyl)-[1,1′-biphenyl]-4-yl)methyl)-N′,1-dimethyl-1H-pyrazolo[4,3-c]quinoline-8-carbohydrazide] | < 100
1 to 5 | 298 | CC(=O)N(C)N(Cc1ccc(C2CC2)nc1)C(=O)c1ccc2nc(N)c3cnn(C)c3c2c1 [Example 232, N′-acetyl-4-amino-N-((6-cyclopropylpyridin-3-yl)methyl)-N′,1-dimethyl-1H-pyrazolo[4,3-c]quinoline-8-carbohydrazide] | < 100
< 1 | 89 | CC(=O)N(C)N(Cc1ccc(-c2cnsc2)cc1F)C(=O)c1ccc2nc(N)c3cnn(C)c3c2c1 [Example 233, N′-acetyl-4-amino-N-(2-fluoro-4-(isothiazol-4-yl)benzyl)-N′,1-dimethyl-1H-pyrazolo[4,3-c]quinoline-8-carbohydrazide] | < 100
< 1 | 39 | CC(=O)N(C)N(Cc1ccc(-c2ccns2)cc1F)C(=O)c1ccc2nc(N)c3cnn(C)c3c2c1 [Example 234, N′-acetyl-4-amino-N-(2-fluoro-4-(isothiazol-5-yl)benzyl)-N′,1-dimethyl-1H-pyrazolo[4,3-c]quinoline-8-carbohydrazide] | < 100
1 to 5 | 259 | CN(C(=O)C1CC1)N(Cc1ccc(F)cc1)C(=O)c1ccc2nc(N)c3cnn(C)c3c2c1 [Example 235, 4-amino-N′-(cyclopropanecarbonyl)-N-(4-fluorobenzyl)-N′,1-dimethyl-1H-pyrazolo[4,3-c]quinoline-8-carbohydrazide] | < 100
< 1 | 203 | CC(=O)N(C)N(Cc1ccc(-c2cnn(C3CC3)c2)cc1F)C(=O)c1ccc2nc(N)c3cnn(C)c3c2c1 [Example 236, N′-acetyl-4-amino-N-(4-(1-cyclopropyl-1H-pyrazol-4-yl)-2-fluorobenzyl)-N′,1-dimethyl-1H-pyrazolo[4,3-c]quinoline-8-carbohydrazide] | < 100
< 1 | 77 | CN(C(=O)C1CC1)N(Cc1ccc(-c2cnn(C(F)F)c2)cc1F)C(=O)c1ccc2nc(N)c3cnn(C)c3c2c1 [Example 238, 4-amino-N′-(cyclopropanecarbonyl)-N-(4-(1-(difluoromethyl)-1H-pyrazol-4-yl)-2-fluorobenzyl)-N′,1-dimethyl-1H-pyrazolo[4,3-c]quinoline-8-carbohydrazide] | < 100
< 1 | 95 | CN(C(=O)C1CC1)N(Cc1ccc(-c2cnsc2)cc1F)C(=O)c1ccc2nc(N)c3cnn(C)c3c2c1 [Example 240, 4-amino-N′-(cyclopropanecarbonyl)-N-(2-fluoro-4-(isothiazol-4-yl)benzyl)-N′,1-dimethyl-1H-pyrazolo[4,3-c]quinoline-8-carbohydrazide] | < 100
< 1 | 77 | CC(=O)N(C)N(Cc1ccc(-c2cnn(C(F)F)c2)cc1F)C(=O)c1ccc2nc(N)c3cnn(C)c3c2c1 [Example 242, N′-acetyl-4-amino-N-(4-(1-(difluoromethyl)-1H-pyrazol-4-yl)-2-fluorobenzyl)-N′,1-dimethyl-1H-pyrazolo[4,3-c]quinoline-8-carbohydrazide] | < 100
< 1 | 171 | CC(=O)N(C)N(Cc1ccc(-c2ccnn2C)cc1F)C(=O)c1ccc2nc(N)c3cnn(C)c3c2c1 [Example 243, N′-acetyl-4-amino-N-(2-fluoro-4-(1-methyl-1H-pyrazol-5-yl)benzyl)-N′,1-dimethyl-1H-pyrazolo[4,3-c]quinoline-8-carbohydrazide] | < 100
< 1 | 109 | CC(=O)N(C)N(Cc1ccc(-c2ccnn2C(F)(F)F)cc1F)C(=O)c1ccc2nc(N)c3cnn(C)c3c2c1 [Example 244, N′-acetyl-4-amino-N-(2-fluoro-4-(1-(trifluoromethyl)-1H-pyrazol-5-yl)benzyl)-N′,1-dimethyl-1H-pyrazolo[4,3-c]quinoline-8-carbohydrazide] | < 100
1 to 5 | 288 | CN(C(=O)C12CC(C1)C2)N(Cc1ccc(C(F)(F)F)nn1)C(=O)c1cc2c(cc1F)nc(N)c1cnn(C)c12 [Example 246, 4-amino-N′-(bicyclo[1.1.1]pentane-1-carbonyl)-7-fluoro-N′, 1-dimethyl-N-((6-(trifluoromethyl)pyridazin-3-yl)methyl)-1H-pyrazolo[4,3-c]quinoline-8-carbohydrazide] | 100 to 1000
1 to 5 | 536 | CN(C(=O)C12CC(C1)C2)N(Cc1ccc(C(F)(F)F)nn1)C(=O)c1ccc2nc(N)c3cnn(C)c3c2c1 [Example 248, 4-amino-N′-(bicyclo[1.1.1]pentane-1-carbonyl)-N′,1-dimethyl-N-((6-(trifluoromethyl)pyridazin-3-yl)methyl)-1H-pyrazolo[4,3-c]quinoline-8-carbohydrazide] | 100 to 1000
< 1 | 193 | CC(=O)N(C)N(Cc1ccc(-c2ccn(C(F)(F)F)n2)cc1F)C(=O)c1ccc2nc(N)c3cnn(C)c3c2c1 [Example 249, N′-acetyl-4-amino-N-(2-fluoro-4-(1-(trifluoromethyl)-1H-pyrazol-3-yl)benzyl)-N′,1-dimethyl-1H-pyrazolo[4,3-c]quinoline-8-carbohydrazide] | < 100
< 1 | 153 | CC(=O)N(C)N(Cc1ccc(-c2csc(C(F)(F)F)n2)cc1F)C(=O)c1ccc2nc(N)c3cnn(C)c3c2c1 [Example 250, N′-acetyl-4-amino-N-(2-fluoro-4-(2-(trifluoromethyl)thiazol-4-yl)benzyl)-N′,1-dimethyl-1H-pyrazolo[4,3-c]quinoline-8-carbohydrazide] | < 100
< 1 | 28 | COC(=O)N(C)N(Cc1ccc(C(F)(F)F)cn1)C(=O)c1ccc2nc(N)c3cnn(C)c3c2c1 [Example 253, methyl 2-(4-amino-1-methyl-1H-pyrazolo[4,3-c]quinoline-8-carbonyl)-1-methyl-2-((5-(trifluoromethyl)pyridin-2-yl)methyl)hydrazine-1-carboxylate] | < 100
< 1 | 266 | [2H]C([2H])(c1ccc(C(F)(F)F)cn1)N(C(=O)c1ccc2nc(N)c3cnn(C([2H])([2H])[2H])c3c2c1)N(C)C(=O)C1CC1 [Example 254, 4-amino-N′-(cyclopropanecarbonyl)-N′-methyl-1-(methyl-d3)-N-((5-(trifluoromethyl)pyridin-2-yl)methyl-d2)-1H-pyrazolo[4,3-c]quinoline-8-carbohydrazide] | < 100
< 1 | 51 | CN(C(=O)[C@H]1C[C@@H]1F)N(Cc1ccc(C(F)(F)F)cn1)C(=O)c1ccc2nc(N)c3cnn(C)c3c2c1 [Example 255, 4-amino-N′-((1R,2S)-2-fluorocyclopropane-1-carbonyl)-N′,1-dimethyl-N-((5-(trifluoromethyl)pyridin-2-yl)methyl)-1H-pyrazolo[4,3-c]quinoline-8-carbohydrazide] | < 100
< 1 | 130 | [2H]C([2H])(c1ccc(C(F)(F)F)cn1)N(C(=O)c1ccc2nc(N)c3cnn(C)c3c2c1)N(C)C(=O)C1CC1 [Example 256, 4-amino-N′-(cyclopropanecarbonyl)-N′,1-dimethyl-N-((5-(trifluoromethyl)pyridin-2-yl)methyl-d2)-1H-pyrazolo[4,3-c]quinoline-8-carbohydrazide] | < 100
< 1 | 213 | [2H]C([2H])([2H])n1ncc2c(N)nc3ccc(C(=O)N(Cc4ccc(C(F)(F)F)cn4)N(C)C(=O)C4CC4)cc3c21 [Example 257, 4-amino-N′-(cyclopropanecarbonyl)-N′-methyl-1-(methyl-d3)-N-((5-(trifluoromethyl)pyridin-2-yl)methyl)-1H-pyrazolo[4,3-c]quinoline-8-carbohydrazide] | < 100
1 to 5 | 221 | CN(C(=O)[C@H]1C[C@H]1F)N(Cc1ccc(C(F)(F)F)cn1)C(=O)c1ccc2nc(N)c3cnn(C)c3c2c1 [Example 258, 4-amino-N′-((1R,2R)-2-fluorocyclopropane-1-carbonyl)-N′,1-dimethyl-N-((5-(trifluoromethyl)pyridin-2-yl)methyl)-1H-pyrazolo[4,3-c]quinoline-8-carbohydrazide] | < 100

Source: patent publication US20240254118A1, “PRMT5 INHIBITORS AND USES THEREOF” (Gilead Sciences, Inc., priority 2022, published 2024)
